We go through 16 compounds from publication PMC10054428, “Turning a Tumor Microenvironment Pitfall into Opportunity: Discovery of Benzamidoxime as PD-L1 Ligand with pH-Dependent Potency” (International Journal of Molecular Sciences, 2023).

“Also recorded” adds a separate entry of the source. Where two headings read alike, the source gives them in different places. Bounds are passed on as bounds.

The target in data set [1] is T1, NT650/PD-L1 (recombinant human PD-L1) (Homo sapiens, UniProt Q9NZQ7).
T1 construct: purchased Abcam ab167713
Nature of the data set: Full-point MST binding assay (Kd) at pH 7.2 and 6.2. The following applies: for BEI (pH 6.2) / BEI: BEI = pKd/MW (kDa); for BEI: pH 7.2; for delta increment of BEI: pH 6.2 versus pH 7.2. The protocol:
These compounds were next tested in full ligand binding assays against NT650/PD-L1 at pH 7.2, using the scalar concentration of each compound to obtain binding curves and the relative dissociation constants (Kd).
(§1) Biophysical Binding Assays. A lyophilized form of the recombinant human PD-L1 protein was purchased from Abcam (ab167713, Abcam, Cambridge, UK) and reconstituted by adding sterile deionized water to reach a theoretical concentration of 400 µg/mL in PBS (PBS7.2: 50 mM KH2PO4, 0.05% Tween 20, pH 7.2). […] Then, the protein was labeled with a fluorescent dye using the Protein Labelling Kit RED-NHS (NT650, NanoTemper Technologies GmbH, Munich, Germany) and a 1:4 ratio (protein:dye). […] The unbounded fluorophore was removed by a size-exclusion chromatography column using a PBS7.2 storage buffer (pH 7.2). The removal of the unbounded fluorophore was also repeated by conditioning the size-exclusion chromatography column with a phosphate buffer at pH 6.2 (PBS6.2: 50 mM KH2PO4, 0.05% Tween 20, pH 6.2).
(§2) Ligand binding experiments were performed using MST (Monolith NT.115; NanoTemper Technologies GmbH, Munich, Germany). This method is based on the principle of thermophoresis, which is the movement of a biomolecular complex in a temperature gradient depending on the size, charge, and hydration shell that typically change upon ligand/target interaction. The selected 10 highly soluble fragments were purchased from Life Chemicals. […] A vehicle of DMSO 2% was used as negative control.
Each compound was tested starting the 1:1 dilution from a 1 mM concentration in MST buffer (PBS7.2 and PBS6.2) with 2% DMSO. An amount of 10 µL solution of 100 nM NT650/PD-L1 was added to each compound dilution and mixed to halve the final concentration of each component, including 2% DMSO, and reach a reaction volume of 20 µL. After incubating the mixtures for 30 min, samples were loaded into 16 premium-coated capillary tubes for MST analysis. MST signals were recorded for each capillary at medium laser power and 40% LED power, choosing the manual mode with 19/20s hot region.
The Binding Efficiency Index (BEI) was calculated using the following equation [Equation (1)] [43]:BEI = pKd/MW (kDa)(1)
(§3) In all binding experiments and ligand binding displacement assays, raw data were analyzed using MO.Affinity analysis software v2.3 (NanoTemper Technologies GmbH, Munich, Germany). Kd values were extrapolated by compound concentration-dependent changes of the NT650/PD-L1 F-norm signals using MO.Affinity analysis software v2.3.
(§4) MST experiments were carried out using a Monolith NT.115 instrument (NanoTemper Technologies GmbH, Munich, Germany).

The target of data set [2] is T1, NT650/PD-L1 (recombinant human PD-L1). As to the kind of experiment: Single-point MST binding assay. The following applies: 250 µM compound; for Single-point binding result (in words): NT650/PD-L1; for Binder (single-point binder flag): 50 nM NT650/PD-L1, pH 7.2, F-norm outside vehicle ± 3 SD. The procedure:
Putative hit compounds were defined as those molecules inducing a thermophoretic movement of the ligand-bound complex with a fluorescent signal (F-norm) outside the signal value and three-fold standard deviations of the negative control (vehicle, DMSO).
as §1, §2
Single-point binding assays were carried out, recording the MST signal for each capillary at medium laser power and 40% LED power, choosing the manual mode with a 19/20 s hot region. Each experiment was repeated three times employing premium-coated capillaries.

Data set [3] can be described thus: pKa by potentiometric titration (SiriusT3). The following applies: 25 °C, n.3. The format is physicochemical. The source says: The first value (pKa1) corresponds to the deprotonated state of the protonated oxime nitrogen atom, entailing the neutral form. The second value (pKa2) is associated to the deprotonation of the oxime hydroxyl group, providing the anionic form of the compound. The presence of electron-withdrawing and/or -donating groups on the benzene ring may affect these values, entailing different stabilities of the cationic, neutral, and anionic species at a given pH. Accordingly, we used a potentiometric titration method to determine the pKa values of VIS310 and its analogues (9, 16–20).
Table 3 reports the experimental pKa values of BMS-202 (5), VIS310 (9), and its analogues (16–20), as obtained using SiriusT3 instrument. […] Therefore, the very high pKa value corresponding to the deprotonation of the oxime hydroxyl group was not experimentally determined in the compounds. Conversely, one or two pKa values were obtained, depending on the presence of a phenol moiety in the benzamidoxime derivatives. […] This is more evident with the insertion of the para hydroxyl group in the compounds VIS1201 (17; pKa1 = 5.35), VIS1202 (18; pKa1 = 5.38), VIS1203 (19; pKa1 = 5.38), and VIS310 (9; pKa1 = 5.65). These latter compounds show also a second value of the acid dissociation constant (pKa2) that corresponds to the deprotonated state of the phenolic group, entailing the anionic form of the compound. […] At pH 7.2, the microspecies adopting a neutral form increases, whereas the cationic form decreases, and a minor part of the microspecies starts adopting an anionic form (Figures S2 and S3, supplementary material).
Physicochemical Property Evaluations. Acidic constants (calcpKa) of compounds were calculated using the calculator plugin Marvin (v20.11, 2021; ChemAxon, Budapest, Hungary).
Each experiment was performed by specifying the sample weight, number of expected pKa values, calculated pKa (calcpKa) values, titration mode, and number of titrations (n.3). In order to measure the pKa of a compound, a sample concentration of 1 mM was prepared and dissolved, adding methanol as the co-solvent. […] Titrations of compounds 16–20 were performed using a ratio of 45%, 40%, 35% methanol. The Yasuda–Shedlovsky method was chosen to extrapolate aqueous pKa values. The R^2 value was used to evaluate the validity of the assay with a co-solvent, and the results were considered acceptable with a R^2 value ≥ 0.9 (Table S3, supplementary material). The accuracy of the pKa assay was also evaluated using the buffer index profile of the analyte. Specifically, the buffering capacity signal of the analyte must be above the intrinsic buffering capacity of water in order to have an accurate potentiometric measurement. Results were analyzed using Sirius T3 software v1.1.3.

A further data set has as its target T2, PD-1/PD-L1 complex (Homo sapiens, UniProt Q9NZQ7).
T2 construct: purchased Abcam ab167713 (PD-L1)
Nature of the data set: Ligand binding displacement assay of PD-1/PD-L1 complex (MST). The following applies: pH 6.2, 50 and 100 μM. The procedure: This study was carried out with MST.
Ligand binding displacement assays were carried out with MST. […] The reconstitution of the protein was done by adding sterile deionized water to achieve a final concentration of 1 mg/mL in PBS7.2. […] The protein was tested starting the 1:1 dilution from a 26 μM concentration in MST buffer (PBS6.2) with 2% DMSO. […] After incubating the mixtures for 40 min in the dark, samples were loaded into 16 premium-coated capillary tubes for MST analysis. MST signals were recorded for each capillary at medium laser power and 80% LED power, choosing the Default on Time (DoT) mode with 4/5s hot region.
as §3, §4

Details of data set [4]: method as in PMID 25621618. The following applies: UV/vis titration, cited from earlier work.
Setting [5] is: pH 7.2, n.3, read-out: Kd ± c.v.
[6] abbreviates: pH 6.2, n.3, read-out: Kd ± c.v.
The mark [7] stands for this setting: oxime nitrogen atom, methanol co-solvent, Yasuda–Shedlovsky extrapolation, read-out: pKa1.
The mark [8] stands for this setting: phenolic group (9, 17–19), secondary amine group (5), read-out: pKa2.

T1 sequence (Q9NZQ7 19-290): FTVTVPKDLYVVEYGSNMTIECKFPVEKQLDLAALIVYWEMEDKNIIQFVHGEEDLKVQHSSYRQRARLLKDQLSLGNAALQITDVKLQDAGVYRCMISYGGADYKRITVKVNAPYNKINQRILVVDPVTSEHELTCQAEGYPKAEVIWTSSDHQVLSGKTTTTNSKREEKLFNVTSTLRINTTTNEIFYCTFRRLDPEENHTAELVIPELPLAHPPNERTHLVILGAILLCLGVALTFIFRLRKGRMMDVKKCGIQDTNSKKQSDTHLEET
T2 sequence (Q9NZQ7 19-238 limits assumed, one chain of several): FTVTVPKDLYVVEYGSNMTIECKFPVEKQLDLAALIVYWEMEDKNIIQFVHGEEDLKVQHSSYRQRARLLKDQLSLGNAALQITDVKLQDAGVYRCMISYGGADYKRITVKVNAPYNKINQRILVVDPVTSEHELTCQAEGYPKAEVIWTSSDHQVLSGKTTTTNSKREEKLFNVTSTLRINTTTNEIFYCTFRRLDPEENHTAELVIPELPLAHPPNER

Regarding `NCCSc1c[nH]c2ccccc12` [VIS284], the Kd in data set [1] (setting [5]) was above 250 µM. Also, in data set [2], the “Single-point binding result (in words)” value is “hit compounds”.

In the case of `NCc1n[nH]c(=O)c2ccccc12` [VIS285], in data set [1] (setting [5]), the Kd was above 250 µM. Besides, in data set [2], the “Binder (single-point binder flag)” value is “x/o” and the “Single-point binding result (in words)” value is recorded as “at the borderline of the definition criterion”.

With `[H]/N=C1\NC(=O)[C@H](CC(=O)Nc2cccc3ccccc23)S1` [VIS303], the Kd in data set [1] (setting [5]) was above 250 µM. Further, the “Single-point binding result (in words)” value in data set [2] was “hit compounds”.

With `Cc1cc(/C(N)=N/O)cc(C)c1O` [VIS310], the Kd in data set [1] (setting [6]) worked out at 47.8 µM; in data set [1] (setting [5]) it was 164 µM. Moreover, in data set [1], the “BEI (pH 6.2)” value is recorded as 24.0. The BEI in data set [1] was 21.0. Also, the pKa is 5.65 ± 0.01 in data set [3] (setting [7]) and 9.32 ± 0.02 in data set [3] (setting [8]). In addition, the “Single-point binding result (in words)” value in data set [2] was “hit compounds”.

For `O=C(NCc1ccc(F)cc1)c1ccc2nc[nH]c2c1` [VIS545], the Kd in data set [1] (setting [5]) was above 250 µM. In data set [2], the “Binder (single-point binder flag)” value is “x/o” and the “Single-point binding result (in words)” value was “at the borderline of the definition criterion”.

Turning to `Cc1ccc(Cn2c(S)nc3c2c(=O)n(C)c(=O)n3C)cc1` [VIS826], the Kd in data set [1] (setting [5]) is above 250 µM.

In the case of `O=C(O)c1cccc2c1-c1ccccc1OC2` [VIS877], in data set [1] (setting [5]), the Kd was above 250 µM.

For the compound `COC(=O)c1ccc(C)c2c1-c1ccccc1OC2` [VIS879], the Kd in data set [1] (setting [5]) was above 250 µM.

For the compound `C[C@]1(O)CC[C@@H]1N1CC2CCCCC2C1` (some centres unmarked) [VIS1079], the Kd in data set [1] (Kd ± c.v., pH 7.2, n.3) is above 250 µM. Moreover, in data set [2], the “Binder (single-point binder flag)” value was “x/o” and the “Single-point binding result (in words)” value is recorded as “at the borderline of the definition criterion”.

Take `Cc1cc(C)cc(C(=N)NO)c1` [VIS1200]: the values for the Kd in data set [1] (setting [6]) and in data set [1] (setting [5]) were 95.6 ± 20.6 µM and above 1000 µM, respectively. Moreover, the “BEI (pH 6.2)” value in data set [1] is recorded as 24.5. The pKa in data set [3] (setting [7]) is 5.26 ± 0.01.

Take `N=C(NO)c1ccc(O)cc1` [VIS1201]: on PD-1/PD-L1 complex, the “Inhibition of PD-1/PD-L1 interaction (in words)” value was “dose-dependently inhibits the PD-1/PD-L1 interaction; also recorded: dose-dependently inhibit the formation of the PD-1/PD-L1 complex”. For the same compound, the Kd in data set [1] (setting [6]) stood at 45.2 ± 10.6 µM. For the same compound, in data set [1], the “BEI (pH 6.2)” value is on record as 28.6, the “delta increment of BEI” value is on record as “+8.9” and the BEI stood at 19.7. Besides, the Kd in data set [1] (setting [5]) was above 1000 µM. Also, the pKa in data set [3] (setting [7]) is 5.35 ± 0.12. In addition, in data set [3] (setting [8]), the pKa was found to be 8.64 ± 0.01.

On to `Cc1cc(C(=N)NO)ccc1O` [VIS1202], for which the dissociation constant Kd in data set [1] (setting [6]) was 55.4 ± 9.86 µM; in data set [1] (setting [5]) it was above 1000 µM. In data set [1], the “BEI (pH 6.2)” value is on record as 25.6. In addition, the pKa in data set [3] (setting [7]) was 5.38 ± 0.01; in data set [3] (setting [8]), 8.97 ± 0.03.

On to `Cc1cc(O)ccc1C(=N)NO` [VIS1203], for which the Kd in data set [1] (setting [6]) was 54.9 ± 8.2 µM; in data set [1] (setting [5]) it was above 1000 µM. In addition, the “BEI (pH 6.2)” value in data set [1] is 25.7. In addition, the values for the pKa in data set [3] (setting [7]) and in data set [3] (setting [8]) were 5.38 ± 0.01 and 9.17 ± 0.02, respectively.

Take `N=C(NO)c1ccccc1-c1ccccc1` [VIS1204]: in data set [1] (setting [6]), the dissociation constant Kd turned out to be 70.8 ± 12.7 µM. For the same compound, in data set [1], the “BEI (pH 6.2)” value is given as 19.6, the “delta increment of BEI” value is on record as “+1.5” and the BEI is listed as 18.1. Moreover, in data set [1] (setting [5]), the Kd worked out at 148 ± 71.3 µM. Besides, in data set [3] (setting [7]), the pKa is 5.3 ± 0.01.

With `Nc1[nH]ncc1-c1ccc(F)cc1F` [VIS32926], the equilibrium dissociation constant (Kd) in data set [1] (setting [5]) was above 250 µM. In data set [2], the “Binder (single-point binder flag)” value is “x/o” and the “Single-point binding result (in words)” value was “at the borderline of the definition criterion”.

In the case of `NC(=NO)c1ccccc1` [benzamidoxime], the pKa2 in data set [4] (oxime hydroxyl group) is 12.36. The pKa1 in data set [4] (protonated oxime nitrogen) is reported as 4.85.

As usually defined, the Kd is the equilibrium constant for the complex coming apart.
